Measurements taken from PMC7206119, “RIP1 inhibition blocks inflammatory diseases but not tumor growth or metastases” (Cell Death and Differentiation, 2019).

Experiments:
Test in all cases: biochemical
Design in all cases: DiscoverX kinase panel, active-site competition binding (KINOMEscan type), percent of control at one concentration
Settings in all cases: competition binding, percent of control
[1] = biological target: ALK(L1196M) (Homo sapiens, UniProt Q9UM73, L1196M)
[2] = biological target: ANKK1 (Homo sapiens, UniProt Q8NFD2)
Sequence of ANKK1 (Q8NFD2 whole entry): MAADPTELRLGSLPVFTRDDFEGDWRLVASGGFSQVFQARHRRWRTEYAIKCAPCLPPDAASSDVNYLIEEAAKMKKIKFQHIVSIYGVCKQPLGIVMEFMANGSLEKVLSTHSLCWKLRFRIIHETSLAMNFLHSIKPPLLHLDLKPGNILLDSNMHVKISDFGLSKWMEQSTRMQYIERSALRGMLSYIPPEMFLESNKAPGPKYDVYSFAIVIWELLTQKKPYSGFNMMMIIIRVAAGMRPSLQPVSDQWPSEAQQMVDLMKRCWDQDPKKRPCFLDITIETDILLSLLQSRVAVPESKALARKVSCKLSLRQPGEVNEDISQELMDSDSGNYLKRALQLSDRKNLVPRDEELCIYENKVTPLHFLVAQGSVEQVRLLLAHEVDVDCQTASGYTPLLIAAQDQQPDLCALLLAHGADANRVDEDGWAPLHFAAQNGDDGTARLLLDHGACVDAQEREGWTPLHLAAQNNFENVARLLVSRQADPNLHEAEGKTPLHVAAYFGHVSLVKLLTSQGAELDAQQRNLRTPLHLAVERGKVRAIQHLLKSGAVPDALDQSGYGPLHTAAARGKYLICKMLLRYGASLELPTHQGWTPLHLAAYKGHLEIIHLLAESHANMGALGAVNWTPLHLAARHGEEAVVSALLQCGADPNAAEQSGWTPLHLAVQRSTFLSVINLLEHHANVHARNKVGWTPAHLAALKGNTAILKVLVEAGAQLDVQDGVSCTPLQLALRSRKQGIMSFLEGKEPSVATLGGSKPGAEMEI

[3] = biological target: BUB1 (Homo sapiens, UniProt O43683)
Sequence of BUB1 (O43683 whole entry): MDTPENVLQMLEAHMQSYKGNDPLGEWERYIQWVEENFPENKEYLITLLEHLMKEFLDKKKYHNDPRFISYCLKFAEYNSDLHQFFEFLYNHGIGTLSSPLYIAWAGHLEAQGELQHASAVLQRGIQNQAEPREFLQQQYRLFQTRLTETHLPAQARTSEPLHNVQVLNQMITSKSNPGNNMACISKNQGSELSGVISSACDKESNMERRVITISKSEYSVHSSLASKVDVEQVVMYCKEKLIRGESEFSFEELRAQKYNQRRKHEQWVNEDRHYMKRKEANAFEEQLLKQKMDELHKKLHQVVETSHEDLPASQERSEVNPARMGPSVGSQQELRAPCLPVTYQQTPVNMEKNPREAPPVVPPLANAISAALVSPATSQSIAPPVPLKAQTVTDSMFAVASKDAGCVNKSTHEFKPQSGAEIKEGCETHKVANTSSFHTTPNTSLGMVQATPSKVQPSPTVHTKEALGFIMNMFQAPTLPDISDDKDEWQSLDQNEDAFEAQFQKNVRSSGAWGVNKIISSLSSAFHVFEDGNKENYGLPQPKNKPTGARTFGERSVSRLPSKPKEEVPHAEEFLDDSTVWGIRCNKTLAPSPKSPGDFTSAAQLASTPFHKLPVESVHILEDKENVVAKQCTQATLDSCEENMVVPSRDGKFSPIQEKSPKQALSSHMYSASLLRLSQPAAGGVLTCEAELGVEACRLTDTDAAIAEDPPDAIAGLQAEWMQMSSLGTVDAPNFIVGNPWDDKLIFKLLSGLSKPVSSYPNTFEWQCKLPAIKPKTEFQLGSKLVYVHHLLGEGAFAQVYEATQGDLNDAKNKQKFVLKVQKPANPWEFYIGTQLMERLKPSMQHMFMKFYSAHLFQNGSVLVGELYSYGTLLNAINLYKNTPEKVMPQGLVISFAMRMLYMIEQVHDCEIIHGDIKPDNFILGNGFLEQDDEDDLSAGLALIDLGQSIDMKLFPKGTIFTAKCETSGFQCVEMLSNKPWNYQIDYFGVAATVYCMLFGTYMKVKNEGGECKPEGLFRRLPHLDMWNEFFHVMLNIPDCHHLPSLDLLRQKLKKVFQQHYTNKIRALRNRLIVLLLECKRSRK

[4] = biological target: CSNK1G2 (Homo sapiens, UniProt P78368)
[5] = biological target: T1, DMPK2 (Homo sapiens, UniProt Q6DT37)
T1 construct: gene CDC42BPG

[6] = biological target: DYRK2 (Homo sapiens, UniProt Q92630)
[7] = biological target: EGFR(L747-T751del,Sins) (Homo sapiens, UniProt P00533, DEL747-750/T751S)
[8] = biological target: FLT3(D835V) (Homo sapiens, UniProt P36888, D835V)
[9] = biological target: FLT3(ITD) (Homo sapiens, UniProt P36888, ITD)
[10] = biological target: T2, IKK-alpha (Homo sapiens, UniProt O15111)
T2 construct: gene CHUK

[11] = biological target: IRAK4 (Homo sapiens, UniProt Q9NWZ3)
[12] = biological target: KIT(D816H) (Homo sapiens, UniProt P10721, D816H)
[13] = biological target: MAP3K1 (Homo sapiens, UniProt Q13233)
Sequence of MAP3K1 (Q13233 whole entry): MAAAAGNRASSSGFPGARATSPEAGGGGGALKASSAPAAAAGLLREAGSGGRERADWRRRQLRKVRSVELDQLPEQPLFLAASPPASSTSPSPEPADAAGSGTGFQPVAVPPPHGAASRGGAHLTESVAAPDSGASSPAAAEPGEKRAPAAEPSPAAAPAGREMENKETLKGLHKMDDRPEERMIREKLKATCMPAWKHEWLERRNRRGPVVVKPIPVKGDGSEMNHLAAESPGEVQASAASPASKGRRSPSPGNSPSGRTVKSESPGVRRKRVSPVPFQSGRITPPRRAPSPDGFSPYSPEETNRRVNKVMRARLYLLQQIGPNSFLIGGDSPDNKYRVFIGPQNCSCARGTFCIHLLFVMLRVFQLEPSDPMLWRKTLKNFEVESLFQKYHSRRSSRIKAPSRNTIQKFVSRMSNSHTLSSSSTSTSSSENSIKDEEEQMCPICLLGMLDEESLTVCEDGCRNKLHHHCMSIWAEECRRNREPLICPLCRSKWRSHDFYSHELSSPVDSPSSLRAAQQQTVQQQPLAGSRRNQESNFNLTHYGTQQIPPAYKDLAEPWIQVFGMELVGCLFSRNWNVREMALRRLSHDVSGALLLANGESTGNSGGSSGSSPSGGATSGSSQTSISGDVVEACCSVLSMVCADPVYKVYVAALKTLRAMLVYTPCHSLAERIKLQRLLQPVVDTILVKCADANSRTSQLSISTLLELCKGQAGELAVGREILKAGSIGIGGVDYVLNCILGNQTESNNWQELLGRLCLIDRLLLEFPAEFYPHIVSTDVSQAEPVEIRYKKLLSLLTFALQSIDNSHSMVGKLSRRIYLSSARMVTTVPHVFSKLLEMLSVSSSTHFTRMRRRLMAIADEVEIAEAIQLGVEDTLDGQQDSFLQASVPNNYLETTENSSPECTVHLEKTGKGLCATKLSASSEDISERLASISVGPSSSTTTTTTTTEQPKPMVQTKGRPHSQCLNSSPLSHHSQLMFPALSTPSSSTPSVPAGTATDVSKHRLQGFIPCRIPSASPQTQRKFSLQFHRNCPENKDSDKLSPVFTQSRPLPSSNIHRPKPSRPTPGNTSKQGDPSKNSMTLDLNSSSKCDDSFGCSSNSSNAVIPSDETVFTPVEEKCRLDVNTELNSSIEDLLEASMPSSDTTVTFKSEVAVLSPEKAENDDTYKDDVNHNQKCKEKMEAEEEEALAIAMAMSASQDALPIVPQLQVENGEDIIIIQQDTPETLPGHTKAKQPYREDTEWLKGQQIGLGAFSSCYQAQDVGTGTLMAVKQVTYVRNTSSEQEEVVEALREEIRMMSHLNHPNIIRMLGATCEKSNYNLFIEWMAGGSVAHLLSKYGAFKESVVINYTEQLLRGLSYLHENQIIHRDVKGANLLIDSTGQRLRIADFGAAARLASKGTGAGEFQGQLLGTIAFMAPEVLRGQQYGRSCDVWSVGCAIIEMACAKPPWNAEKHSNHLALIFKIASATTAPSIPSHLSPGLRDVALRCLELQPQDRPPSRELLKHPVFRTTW

[14] = biological target: MAPKAPK2 (Homo sapiens, UniProt P49137)
[15] = biological target: MYLK2 (Homo sapiens, UniProt Q9H1R3)
[16] = biological target: PAK2 (Homo sapiens, UniProt Q13177)
[17] = biological target: PRKD1 (Homo sapiens, UniProt Q15139)
[18] = biological target: RAF1 (Homo sapiens, UniProt P04049)
[19] = biological target: T3, RSK4(Kin.Dom.1-N-terminal) (Homo sapiens, UniProt Q9UK32)
T3 construct: gene RPS6KA6; Kin.Dom.1-N-terminal

[20] = biological target: T4, SGK (Homo sapiens, UniProt O00141)
T4 construct: gene SGK1

[21] = biological target: T5, VPS34 (Homo sapiens, UniProt Q8NEB9)
T5 construct: gene PIK3C3

Sequence of ALK(L1196M) (Q9UM73 whole entry L1196M): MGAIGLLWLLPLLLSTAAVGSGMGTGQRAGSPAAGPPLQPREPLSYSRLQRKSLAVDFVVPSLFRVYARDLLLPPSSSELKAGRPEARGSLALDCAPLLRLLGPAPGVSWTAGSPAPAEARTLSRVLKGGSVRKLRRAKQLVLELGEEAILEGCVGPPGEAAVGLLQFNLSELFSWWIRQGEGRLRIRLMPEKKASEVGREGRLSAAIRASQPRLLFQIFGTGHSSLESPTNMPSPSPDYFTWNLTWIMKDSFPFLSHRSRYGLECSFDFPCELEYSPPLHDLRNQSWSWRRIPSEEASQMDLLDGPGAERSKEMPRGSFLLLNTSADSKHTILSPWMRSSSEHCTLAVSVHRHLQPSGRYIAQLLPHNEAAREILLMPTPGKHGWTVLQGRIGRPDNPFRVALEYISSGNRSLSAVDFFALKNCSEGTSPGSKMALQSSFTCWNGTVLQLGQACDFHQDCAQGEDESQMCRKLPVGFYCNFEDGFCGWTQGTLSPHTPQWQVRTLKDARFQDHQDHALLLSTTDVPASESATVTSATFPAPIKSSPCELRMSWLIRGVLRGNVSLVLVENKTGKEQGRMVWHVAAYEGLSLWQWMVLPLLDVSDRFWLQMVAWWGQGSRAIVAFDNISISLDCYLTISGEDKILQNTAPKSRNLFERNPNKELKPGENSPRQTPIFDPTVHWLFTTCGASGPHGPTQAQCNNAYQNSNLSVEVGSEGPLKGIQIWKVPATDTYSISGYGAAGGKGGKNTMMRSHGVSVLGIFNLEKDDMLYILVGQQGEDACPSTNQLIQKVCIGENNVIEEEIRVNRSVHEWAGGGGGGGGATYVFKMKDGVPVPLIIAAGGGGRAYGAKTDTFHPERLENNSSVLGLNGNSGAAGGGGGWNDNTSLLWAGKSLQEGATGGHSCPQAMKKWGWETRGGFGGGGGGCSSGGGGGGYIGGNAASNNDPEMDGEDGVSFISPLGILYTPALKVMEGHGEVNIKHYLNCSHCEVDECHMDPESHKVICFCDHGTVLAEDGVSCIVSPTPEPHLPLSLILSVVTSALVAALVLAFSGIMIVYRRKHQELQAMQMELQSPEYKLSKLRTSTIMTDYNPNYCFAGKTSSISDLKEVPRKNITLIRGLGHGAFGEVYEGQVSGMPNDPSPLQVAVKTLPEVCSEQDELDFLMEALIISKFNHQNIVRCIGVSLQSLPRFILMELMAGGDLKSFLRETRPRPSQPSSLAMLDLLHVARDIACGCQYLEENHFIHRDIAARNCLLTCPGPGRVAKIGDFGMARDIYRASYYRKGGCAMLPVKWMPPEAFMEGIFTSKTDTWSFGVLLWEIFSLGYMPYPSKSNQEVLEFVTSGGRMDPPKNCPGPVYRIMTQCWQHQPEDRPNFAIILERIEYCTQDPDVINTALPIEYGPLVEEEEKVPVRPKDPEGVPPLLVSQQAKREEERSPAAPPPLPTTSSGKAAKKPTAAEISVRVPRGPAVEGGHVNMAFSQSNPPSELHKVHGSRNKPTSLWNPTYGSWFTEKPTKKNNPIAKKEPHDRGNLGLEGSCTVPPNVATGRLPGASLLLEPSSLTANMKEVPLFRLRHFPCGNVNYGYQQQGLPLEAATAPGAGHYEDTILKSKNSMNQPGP

COc1cc2c(cn1)N(C)C(=O)[C@@H](NC(=O)c1nc3n(n1)[C@H](c1ccccc1)CC3)CC2 [GNE684, (S)-N-((S)-7-methoxy-1-methyl-2-oxo-2,3,4,5-tetrahydro-1H-pyrido[3,4-b]azepin-3-yl)-5-phenyl-6,7-dihydro-5H-pyrrolo[1,2-b][1,2,4]triazole-2-carboxamide]
remaining binding at 10 µM [1]: 78%
remaining binding at 10 µM [2]: 98%
remaining binding at 10 µM [3]: 100%
remaining binding at 10 µM [4]: 90%
remaining binding at 10 µM [5]: 100%
remaining binding at 10 µM [6]: 87%
remaining binding at 10 µM [7]: 84%
remaining binding at 10 µM [8]: 88%
remaining binding at 10 µM [9]: 100%
remaining binding at 10 µM [10]: 100%
remaining binding at 10 µM [11]: 100%
remaining binding at 10 µM [12]: 100%
remaining binding at 10 µM [13]: 90%
remaining binding at 10 µM [14]: 100%
remaining binding at 10 µM [15]: 83%
remaining binding at 10 µM [16]: 100%
remaining binding at 10 µM [17]: 100%
remaining binding at 10 µM [18]: 77%
remaining binding at 10 µM [19]: 100%
remaining binding at 10 µM [20]: 100%
remaining binding at 10 µM [21]: 100%
